Where two headings read alike, the source gives them in different places.
Key:
SW620 cell line = experiment: MTS colorimetric cell viability assay, CHK-ATM combination, SW620; settings: for IC50: Homo sapiens
NCI-H460dnp53 cell line = experiment: MTS colorimetric cell viability assay, CHK-ATM combination, NCI-H460dnp53

IC50 (SW620 cell line; SW-620, 96 h, read-out: IC50 of ATM inhibitor, ATM inhibitor + CHK inhibitor Simultaneous) [µM]	IC50 (SW620 cell line; SW-620, read-out: IC50 of ATM inhibitor alone) [µM]	IC50 (SW620 cell line; SW-620, read-out: IC50 of ATM inhibitor, ATM inhibitor followed by CHK inhibitor) [µM]	IC50 (SW620 cell line; SW-620, read-out: IC50 of ATM inhibitor, CHK inhibitor followed by ATM inhibitor) [µM]	IC50 (NCI-H460dnp53 cell line; 96 h, read-out: IC50 of ATM inhibitor, ATM inhibitor + CHK inhibitor Simultaneous) [µM]	IC50 (NCI-H460dnp53 cell line; read-out: IC50 of ATM inhibitor alone) [µM]	IC50 (NCI-H460dnp53 cell line; read-out: IC50 of ATM inhibitor, ATM inhibitor followed by CHK inhibitor) [µM]	IC50 (NCI-H460dnp53 cell line; read-out: IC50 of ATM inhibitor, CHK inhibitor followed by ATM inhibitor) [µM]	Compound	activity of CHK inhibitor as a single agent at the constant concentration used (SW620 cell line; SW620, 0.28 uM, single agent, previously determined)	activity of CHK inhibitor as a single agent at the constant concentration used (NCI-H460dnp53 cell line; NCI-H460dnp53, 0.33 uM, single agent, previously determined)
								NC(=O)Nc1cc(-c2cccc(F)c2)sc1C(=O)N[C@H]1CCCNC1 [CHK inhibitor, 5-(3-Fluoro-phenyl)-3-ureido-thiophene-2-carboxylic acid (S)-piperidin-3-ylamide]	no activity	no activity
1.9	7	3.4	6	1.7	> 30	3.8	4.4	CC1CN(CC(=O)Nc2ccc3c(c2)Cc2cccc(-c4cc(=O)cc(N5CCOCC5)o4)c2S3)CC(C)O1 (stereo not shown) [ATM inhibitor, 2-[(2,6)-2,6-dimethylmorpholin-4-yl]-N-[5-(6-morpholin-4-yl-4-oxo-4H-pyran-2-yl)-9H-thioxanthen-2-yl]acetamide]		

— US20100240645A1, “COMBINATION OF CHECKPONIT KINASE (CHK) AND TELANGIECTASIA MUTATED (ATM) INHIBITORS FOR THE TREATMENT OF CANCER” (ASTRAZENECA AB, priority 2007, published 2010)
